20 compounds from patent US8551966B2, “Chemical compounds” (priority 2011, dated 2013) can be followed below.

For test [1], the system named is VACV-WR in BSC-1 cells. Kind of test: microbe, parasite or virus in culture. The test is classed as cell-based, vaccinia virus. As to conditions: read-out: VV plaque size IC50 μM (c).
For test [2], the system named is recombinant vaccinia virus strain WR (VACV-WR) 'v3' expressing firefly luciferase, in RK13 cells. Kind of test: microbe, parasite or virus in culture. As to conditions: for activity at 10 µM: Orthopoxvirus vaccinia, RK-13, 2 h, read-out: VV % activity at 10 μM (a). It is filed as cell-based.
Test [3] deals with wildtype measles virus strain WTFb in B95a marmoset B lymphocytes. Kind of test: Measles syncytium reduction assay. It is filed as cell-based. Conditions: for Measles IC100/μM (b): concentration giving total suppression of syncytia formation, B95a cells, 50 syncytium forming units per well; for potency with respect to measles virus: statement in words on Table I data.

As usually defined, the IC50 is the concentration needed to halve the response being measured.

Like-named read-outs stand apart in the source and are kept apart here.

With `CCCCCOCCCCCCCCCc1cc2cn([C@H]3CC[C@@H](CO)O3)c(=O)nc2o1` [Cf 2095, reference compound], in test [1], the IC50 stood at 1.5 µM. Besides, the “VV % activity at 10 μM (a)” value in test [2] worked out at 75%. Besides, in test [3], the “Measles IC100/μM (b)” value is listed as “Inactive” and the “potency with respect to measles virus” value was “inactive”.

On to `CCCCCCc1cc2cn([C@@H]3CC[C@H](CO)O3)c(=O)nc2o1` [Cf 3153, 3-(2′,3′-dideoxy-ribo-β-L-furanosyl)-6-hexylfuro[2,3-d]pyrimidin-2(3H)-one], for which the activity at 10 µM in test [2] is 50%.

As to `CCCCCCCCc1cc2cn([C@@H]3CC[C@H](CO)O3)c(=O)nc2o1` [Cf 3154, 3-(2′,3′-dideoxy-ribo-β-L-furanosyl)-6-octylfuro[2,3-d]pyrimidin-2(3H)-one], in test [2], the “potency with respect to vaccinia virus compared to comparative compound Cf2095” value is given as “greatly enhanced potency” and the activity at 10 µM was found to be 23%. For the compound `CCCCCCCCCCc1cc2cn([C@@H]3CC[C@H](CO)O3)c(=O)nc2o1` [Cf 3155, 3-(2′,3′-dideoxy-ribo-β-Lfuranosyl)-6-decylfuro[2,3-d]pyrimidin-2(3H)-one], in test [2], the “potency with respect to vaccinia virus compared to comparative compound Cf2095” value is on record as “greatly enhanced potency” and the activity at 10 µM is 24%.

Take `CCCCCCCCCCCCc1cc2cn([C@@H]3CC[C@H](CO)O3)c(=O)nc2o1` [Cf 3156, 3-(2′,3′-dideoxy-ribo-β-L-furanosyl)-6-dodecylfuro[2,3-d]-pyrimidin-2(3H)-one]: the activity at 10 µM in test [2] turned out to be 65%.

As to `CCCCCCCc1cc2cn([C@@H]3CC[C@H](CO)O3)c(=O)nc2o1` [Cf 3174, 3-(2′,3′-dideoxy-ribo-β-L-furanosyl)-6-septylfuro[2,3-d]pyrimidin-2(3H)-one], the activity at 10 µM in test [2] is 41%. Take `CCCCCCCCCc1cc2cn([C@@H]3CC[C@H](CO)O3)c(=O)nc2o1` [Cf 3175, 3-(2′,3′-dideoxy-ribo+L-furanosyl)-6-nonylfuro[2,3-d]pyrimidin-2(3H)-one]: in test [2], the “potency with respect to vaccinia virus compared to comparative compound Cf2095” value is recorded as “greatly enhanced potency” and the activity at 10 µM came to 24%. Further, in test [3], the “Measles IC100/μM (b)” value lay in the range of 5 to 10 µM. In the case of `CCCCc1ccc(-c2cc3cn([C@@H]4CC[C@H](CO)O4)c(=O)nc3o2)cc1` [Cf 3176, 3-(2′,3′-dideoxy-ribo-β-L-furanosyl)-6-(4-n-butylphenyl)[2,3-d]pyrimidin-2(3H)-one], in test [2], the activity at 10 µM came to 44%. As for `CCCCCc1ccc(-c2cc3cn([C@@H]4CC[C@H](CO)O4)c(=O)nc3o2)cc1` [Cf 3177, 3-(2′,3′-dideoxy-ribo-D-L-furanosyl)-6-(4-n-pentylphenyl) [2,3-d]pyrimidin-2(3H)-one], in test [2], the activity at 10 µM was determined as 47%. The same measure, in the same setting: under `CCCOCCCCCCCCCc1cc2cn([C@@H]3CC[C@H](CO)O3)c(=O)nc2o1` [Cf 3204, 3-(2′,3′-dideoxy-ribo-β-L-furanosyl)-6-propyloxynonylfuro[2,3-d]pyrimidin-2(3H)-one] stands 41%; under `CCCCOCCCCCCCCCc1cc2cn([C@@H]3CC[C@H](CO)O3)c(=O)nc2o1` [Cf 3207, 3-(2′,3′-dideoxy-ribo-β-L-furanosyl)-6-butyloxynonylfuro[2,3-d]pyrimidin-2(3H)-one], 29%.

On to `CCCCCOCCCCCCCCCc1cc2cn([C@@H]3CC[C@H](CO)O3)c(=O)nc2o1` [Cf 3208, 3-(2′,3′-dideoxy-ribo-β-L-furanosyl)-6-pentyloxynonylfuro[2,3-d]pyrimidin-2(3H)-one], for which the IC50 in test [1] (Orthopoxvirus vaccinia, BSC-1, 72 h) was determined as 0.1 µM. In addition, in test [2], the “potency with respect to vaccinia virus compared to comparative compound Cf2095” value is given as “greatly enhanced potency” and the activity at 10 µM was 24%. For the same compound, in test [3], the “Measles IC100/μM (b)” value lay within 1 to 5 µM and the “potency with respect to measles virus” value is reported as “significant potency”.

For the compound `CCCCCCOCCCCCCCCCc1cc2cn([C@@H]3CC[C@H](CO)O3)c(=O)nc2o1` [Cf 3209, 3-(2′,3′-dideoxy-ribo-β-L-furanosyl)-6-hexyloxynonylfuro[2,3-d]pyrimidin-2(3H)-one], the activity at 10 µM in test [2] was 46%. With `CCOCCCCCCCCCc1cc2cn([C@@H]3CC[C@H](CO)O3)c(=O)nc2o1` [Cf 3210, 3-(2′,3′-dideoxy-ribo-O-L-furanosyl)-6-ethyloxynonylfuro[2,3-d]pyrimidin 2(3H)-one], the activity at 10 µM in test [2] was found to be 72%. For the compound `CCCCCCOCCCCCCCCc1cc2cn([C@@H]3CC[C@H](CO)O3)c(=O)nc2o1` [Cf 3230, 3-(2′,3′-dideoxy-ribo-β-L-furanosyl)-6-hexyloxyoctylfuro[2,3-d]pyrimidin-2(3H)-one], the activity at 10 µM in test [2] came out at 29%. The same measure, in the same setting: the figure for `CCCCCCCCCCOCCCCc1cc2cn([C@@H]3CC[C@H](CO)O3)c(=O)nc2o1` [Cf 3231, 3-(2′,3′-dideoxy-ribo-β-L-furanosyl)-6-decyloxybutylfuro[2,3-d]pyrimidin-2(3H)-one] is 26%. Turning to `CCCCCCCCCCCCCOCc1cc2cn([C@@H]3CC[C@H](CO)O3)c(=O)nc2o1` [Cf 3232, 3-(2′,3′-dideoxy-ribo-β-L-furanosyl)-6-tridecyloxymethylfuro[2,3-d]pyrimidin-2(3H)-one], the activity at 10 µM in test [2] turned out to be 45%. Moreover, in test [3], the “Measles IC100/μM (b)” value was in the range of 1 to 5 µM and the “potency with respect to measles virus” value is recorded as “significant potency”. For the compound `CCCCCOCCCCCCCCCc1cc2cn([C@@H]3CC[C@H](CO)O3)c(=O)nc2n1C` [Cf 3242, 3-(2′,3′-dideoxy-ribo-β-L-furanosyl)-6-pentyloxynonyl-N-methyl-pyrrolo[2,3-d]pyrimidin-2(3H)-one], in test [2], the “potency with respect to vaccinia virus compared to comparative compound Cf2095” value is on record as “greatly enhanced potency” and the activity at 10 µM came to 15%. The “Measles IC100/μM (b)” value in test [3] is 5 to 10 µM.

As to `CCCCCOCCCCCCCCCc1cc2cn([C@@H]3CC[C@H](CO)O3)c(=O)nc2[nH]1` [Cf 3253, 3-(2′,3′-dideoxy-ribo-β-L-furanosyl)-6-pentyloxynonyl-pyrrolo[2,3-d]pyrimidin-2(3H)-one], in test [2], the activity at 10 µM is 52%. For `COCCCCCCCCCCCCCc1cc2cn([C@@H]3CC[C@H](CO)O3)c(=O)nc2o1` [Cf 3254, 3-(2′,3′-dideoxy-ribo-β-L-furanosyl)-6-methyloxytridecylfuro[2,3-d]pyrimidin-2(3H)-one], the activity at 10 µM in test [2] came to 59%.
